Results from patent publication US6737383B1, “Herbicidal oxadiazolidines” (priority 1999, dated 2004).

Legend:
cocklebur = assay: Test B pre/postemergence cocklebur; type: in vivo, Xanthium strumarium
Text: (§1) Seeds of bedstraw (Galium aparine), blackgrass (Alopecurus myosuroides), surinam grass (Brachiaria decumbens), cocklebur (Xanthium strumarium), corn (Zea mays), crabgrass (Digitaria sanguinalis), giant foxtail (Setaria faberii), morningglory (Ipomoea hederacea), pigweed (Amaranthus retroflexus), rape (Brassica napus), soybean (Glycine max), sugar beet (Beta vulgaris), velvetleaf (Abutilon theophrasti), wheat (Triticum aestivum), wild oat (Avena fatua) and purple nutsedge (Cyperus rotundus) tubers were planted and treated preemnergence with test chemicals formulated in a non-phytotoxic solvent mixture which included a surfactant.
(§2) At the same time, these crop and weed species were also treated with postemergence applications of test chemicals formulated in the same manner. Plants ranged in height from 2 to 18 cm (1- to 4-leaf stage) for postemergence treatments. Plant species in the flood test consisted of rice (Oryza sativa), smallflower flatsedge (Cyperus difformis), duck salad (Heteranthera limosa) and bamyardgrass (Echinochloa crus-galli) grown to the 2-leaf stage for testing. Treated plants and controls were maintained in a greenhouse for twelve to sixteen days, after which all species were compared to controls and visually evaluated. Plant response ratings, summarized in Table B, are based on a scale of 0 to 10 where 0 is no effect and 10 is complete control. A dash (−) response means no test result.

rape = assay: Test B pre/postemergence rape; type: in vivo, Brassica napus
Outline: (§3)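 Test chemicals in a non-phytotoxic solvent mixture with surfactant were sprayed preemergence onto planted seeds and postemergence onto plants 2 to 18 cm tall (1- to 4-leaf stage). After twelve to sixteen days in a greenhouse, injury was visually rated against untreated controls from 0 (no effect) to 10 (complete control).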

blackgrass = assay: Test B pre/postemergence blackgrass; type: in vivo, Alopecurus myosuroides
Text: as §1, §2

crabgrass = assay: Test B pre/postemergence crabgrass; type: in vivo, Digitaria sanguinalis
Outline: as §3

giant foxtail = assay: Test B pre/postemergence giant foxtail; type: in vivo, Setaria faberii
Outline: as §3

wild oat = assay: Test B pre/postemergence wild oat; type: in vivo, Avena fatua; conditions: for Plant response rating, Wild oats: Postemergence
Outline: as §3

morningglory = assay: Test B pre/postemergence morningglory; type: in vivo, Ipomoea hederacea
Text: as §1, §2

surinam grass = assay: Test B pre/postemergence surinam grass; type: in vivo, Brachiaria decumbens
Outline: as §3

sugar beet = assay: Test B pre/postemergence sugar beet; type: in vivo, Beta vulgaris; conditions: for Plant response rating, Sugarbeets: Postemergence
Outline: as §3

purple nutsedge = assay: Test B pre/postemergence purple nutsedge; type: in vivo, Cyperus rotundus
Outline: as §3

pigweed = assay: Test B pre/postemergence pigweed; type: in vivo, Amaranthus retroflexus; conditions: for Plant response rating, Redroot pigweed: Postemergence
Outline: as §3

corn = assay: Test B pre/postemergence corn; type: in vivo, Zea mays
Outline: as §3

soybean = assay: Test B pre/postemergence soybean; type: in vivo, Glycine max; conditions: for Plant response rating, Soybean: Postemergence
Outline: as §3

velvetleaf = assay: Test B pre/postemergence velvetleaf; type: in vivo, Abutilon theophrasti; conditions: for Plant response rating, Velvetleaf: Postemergence
Outline: as §3

bedstraw = assay: Test B pre/postemergence bedstraw; type: in vivo, Galium aparine; conditions: for Plant response rating, Bedstraw: Postemergence
Outline: as §3

wheat = assay: Test B pre/postemergence wheat; type: in vivo, Triticum aestivum; conditions: for Plant response rating, Wheat: Postemergence
Outline: as §3

[1] = Postemergence, Rate 62 g/ha, scale of 0 to 10, 0 is no effect, 10 is complete control
[2] = Postemergence, Rate 125 g/ha, scale of 0 to 10 where 0 is no effect and 10 is complete control
[3] = Postemergence, Rate 500 g/ha, scale of 0 to 10 where 0 is no effect and 10 is complete control
[4] = Preemergence, Rate 62 g/ha, scale 0 to 10 (0 no effect, 10 complete control)
[5] = Preemergence, Rate 125 g/ha, scale of 0 to 10 where 0 is no effect and 10 is complete control
[6] = Preemergence, Rate 500 g/ha, scale of 0 to 10 where 0 is no effect and 10 is complete control
[7] = Rate 250 g/ha, Postemergence, scale of 0 to 10 where 0 is no effect and 10 is complete control
[8] = Rate 125 g/ha, scale of 0 to 10 where 0 is no effect and 10 is complete control
[9] = Rate 500 g/ha, scale of 0 to 10 where 0 is no effect and 10 is complete control
[10] = Rate 250 g/ha, scale of 0 to 10 where 0 is no effect and 10 is complete control

CCC=CCn1c(=O)on(C(=O)N(c2ccccc2)C(C)C)c1=O [Compound 582]
0: Cocklebur plant response rating (cocklebur; [1]) | Plant response rating, Cocklebur (cocklebur; [2]) | Cocklebur plant response rating (cocklebur; [4]) | Cocklebur plant response rating (cocklebur; [5]) | Cocklebur plant response rating (0 to 10 scale) (cocklebur; Preemergence, Rate 250 g/ha) | Cocklebur plant response rating (cocklebur; [6]) | Rape plant response rating (rape; [1]) | Plant response rating, Rape (rape; [2]) | Rape plant response rating (rape; [4]) | Rape plant response rating (rape; [5]) | Rape plant response rating (0 to 10 scale) (rape; Preemergence, Rate 250 g/ha) | Plant response rating, Rape (rape; [7]) | Blackgrass plant response rating (blackgrass; [4]) | Blackgrass plant response rating (blackgrass; [5]) | Blackgrass plant response rating (0 to 10 scale) (blackgrass; Preemergence, Rate 250 g/ha) | Blackgrass plant response rating (blackgrass; [6]) | Crabgrass plant response rating (crabgrass; [1]) | Plant response rating, Crabgrass (crabgrass; [2]) | Crabgrass plant response rating (crabgrass; [4]) | Crabgrass plant response rating (crabgrass; [5]) | Crabgrass plant response rating (0 to 10 scale) (crabgrass; Preemergence, Rate 250 g/ha) | Giant foxtail plant response rating (giant foxtail; [4]) | Plant response rating, Wild oats (wild oat; [8]) | Wild oats plant response rating (wild oat; [4]) | Wild oats plant response rating (wild oat; [5]) | Wild oats plant response rating (0 to 10 scale) (wild oat; Preemergence, Rate 250 g/ha) | Wild oats plant response rating (wild oat; [6]) | Plant response rating, Wild oats (wild oat; [10]) | Morningglory plant response rating (morningglory; [4]) | Morningglory plant response rating (morningglory; [5]) | Morningglory plant response rating (0 to 10 scale) (morningglory; Preemergence, Rate 250 g/ha) | B. signalgrass plant response rating (surinam grass; [1]) | Plant response rating, B. signalgrass (surinam grass; [2]) | B. signalgrass plant response rating (surinam grass; [4]) | B. signalgrass plant response rating (surinam grass; [5]) | Plant response rating, B. signalgrass (surinam grass; [7]) | Plant response rating, Sugarbeets (sugar beet; [8]) | Sugarbeets plant response rating (sugar beet; [4]) | Sugarbeets plant response rating (sugar beet; [5]) | Sugarbeets plant response rating (0 to 10 scale) (sugar beet; Preemergence, Rate 250 g/ha) | Sugarbeets plant response rating (sugar beet; [6]) | Nutsedge plant response rating (purple nutsedge; [1]) | Plant response rating, Nutsedge (purple nutsedge; [2]) | Plant response rating, Nutsedge (purple nutsedge; [3]) | Nutsedge plant response rating (purple nutsedge; [4]) | Nutsedge plant response rating (purple nutsedge; [5]) | Nutsedge plant response rating (0 to 10 scale) (purple nutsedge; Preemergence, Rate 250 g/ha) | Nutsedge plant response rating (purple nutsedge; [6]) | Plant response rating, Redroot pigweed (pigweed; [8]) | Redroot pigweed plant response rating (pigweed; [4]) | Redroot pigweed plant response rating (pigweed; [5]) | Corn plant response rating (corn; [1]) | Plant response rating, Corn (corn; [2]) | Plant response rating, Corn (corn; [3]) | Corn plant response rating (corn; [4]) | Corn plant response rating (corn; [5]) | Corn plant response rating (0 to 10 scale) (corn; Preemergence, Rate 250 g/ha) | Corn plant response rating (corn; [6]) | Plant response rating, Corn (corn; [7]) | Soybean plant response rating (soybean; [4]) | Soybean plant response rating (soybean; [5]) | Soybean plant response rating (0 to 10 scale) (soybean; Preemergence, Rate 250 g/ha) | Soybean plant response rating (soybean; [6]) | Plant response rating, Velvetleaf (velvetleaf; [8]) | Plant response rating, Velvetleaf (velvetleaf; [9]) | Velvetleaf plant response rating (velvetleaf; [4]) | Velvetleaf plant response rating (velvetleaf; [5]) | Plant response rating, Velvetleaf (velvetleaf; [10]) | Bedstraw plant response rating (bedstraw; [4]) | Bedstraw plant response rating (bedstraw; [5]) | Plant response rating, Wheat (wheat; [8]) | Plant response rating, Wheat (wheat; [9]) | Wheat plant response rating (wheat; [4]) | Wheat plant response rating (wheat; [5]) | Wheat plant response rating (0 to 10 scale) (wheat; Preemergence, Rate 250 g/ha) | Wheat plant response rating (wheat; [6]) | Plant response rating, Wheat (wheat; [10])
3: Plant response rating, Rape (rape; [3]) | Rape plant response rating (rape; [6]) | Blackgrass plant response rating (blackgrass; [1]) | Plant response rating, Blackgrass (blackgrass; [7]) | Plant response rating, Crabgrass (crabgrass; [3]) | Plant response rating, Crabgrass (crabgrass; [7]) | Giant foxtail plant response rating (giant foxtail; [1]) | Plant response rating, Wild oats (wild oat; [9]) | Plant response rating, B. signalgrass (surinam grass; [3]) | Plant response rating, Sugarbeets (sugar beet; [10]) | Plant response rating, Soybean (soybean; [8]) | Plant response rating, Soybean (soybean; [9]) | Plant response rating, Soybean (soybean; [10])
2: Plant response rating, Cocklebur (cocklebur; [7]) | Morningglory plant response rating (morningglory; [6]) | B. signalgrass plant response rating (0 to 10 scale, 0 is no effect, 10 is complete control) (surinam grass; Preemergence, Rate 250 g/ha)
7: Plant response rating, Blackgrass (blackgrass; [3]) | Crabgrass plant response rating (crabgrass; [6]) | Plant response rating, Giant foxtail (giant foxtail; [3]) | Plant response rating, Sugarbeets (sugar beet; [9]) | Plant response rating, Redroot pigweed (pigweed; [9]) | Plant response rating, Redroot pigweed (pigweed; [10]) | Plant response rating, Bedstraw (bedstraw; [8])
9: Plant response rating, Giant foxtail (giant foxtail; [7]) | Morningglory plant response rating (morningglory; [1]) | Redroot pigweed plant response rating (pigweed; [6]) | Plant response rating, Bedstraw (bedstraw; [10])
8: Giant foxtail plant response rating (0 to 10 scale) (giant foxtail; Preemergence, Rate 250 g/ha) | Giant foxtail plant response rating (giant foxtail; [6])
6: Bedstraw plant response rating (0 to 10 scale) (bedstraw; Preemergence, Rate 250 g/ha) | Bedstraw plant response rating (bedstraw; [6])
10: Plant response rating, Morningglory (morningglory; [2]) | Plant response rating, Morningglory (morningglory; [3]) | Plant response rating, Morningglory (morningglory; [7])
4: Plant response rating, Cocklebur (cocklebur; [3]) | Plant response rating, Giant foxtail (giant foxtail; [2]) | B. signalgrass plant response rating (surinam grass; [6]) | Redroot pigweed plant response rating (0 to 10 scale) (pigweed; Preemergence, Rate 250 g/ha) | Velvetleaf plant response rating (0 to 10 scale) (velvetleaf; Preemergence, Rate 250 g/ha) | Velvetleaf plant response rating (velvetleaf; [6])
5: Giant foxtail plant response rating (giant foxtail; [5])
